Values joined by “and” are separate entries in the source; they are usually repeats but may differ in a detail not shown here. Equal entries are not always repeated.
Legend:
NASH model mice [1] = experiment: NASH model mice (STZ + high-fat diet), oral trametinib study: liver histology, NAFLD activity score, fibrosis area, liver weight; type: in vivo, mouse (C57BL/6); design: fibrosis area score (sirius red-positive area): unit not given here; conditions: for fibrosis area score (sirius red-positive area) / NAFLD activity score (NAS): telmisartan 10 mg/kg p.o., once daily 6 to 9 weeks of age; for fibrosis area score (sirius red-positive area): vehicle 0.69±0.13; for NAFLD activity score (NAS): vehicle 4.29±0.49
Description: (§1) Pathogen-free C57BL/6 mice on the 14th day of pregnancy were obtained from Japan SLC, Inc. (Japan).
(§2) NASH was established in male mice by a single subcutaneous injection of […] streptozotocin (STZ, Sigma, USA) 2 days after birth and feeding with a high-fat diet (CLEA Japan Inc., Japan) ad libitum after 4 weeks of age (day 28±2).
In order to determine a safe oral administration dose of trametinib, as in Example 2, the NASH mice in Example 1 were randomly divided into 3 groups of 7 or 8 mice.Thereafter, the mice of 3 groups were orally administered with the following compounds at about […].
Group 1 (vehicle administration group:negative control group): 7 NASH mice were orally administered with a vehicle (1% DMSO in saline) in a volume of 10 mL/kg once daily from 6 weeks to 9 weeks of age.
Group 2 (telmisartan administration group:positive control group): 8 NASH mice were orally administered with purified water supplemented with telmisartan at a dose of 10 mg/kg (in a volume of 10 mL/kg) once daily from 6 weeks to 9 weeks of age.
Group 3 (trametinib administration group:experimental group): 8 NASH mice were orally administered with a vehicle supplemented with trametinib at a dose of 0.2 mg/kg (in a volume of 10 mL/kg) once daily from 6 weeks to 9 weeks of age.
(§3) The body weight of each mouse was measured daily during the administration period, and the survival rate, clinical symptoms, and behaviors of each mouse were monitored daily.
For histological analysis of liver tissue, mice in Groups 1 to 3 of Example 5 were sacrificed at 9 weeks of age, and then H&E staining, NAFLD activity score measurement, and sirius red staining were performed according to the method of Example 3.
The NAFLD activity score for liver tissue was estimated according to the method of Example 3-2.
According to the method of Example 3-4, a percentage of a fibrosis area due to inflammation and a value of a sirius red-positive area were each estimated through sirius red staining.
Statistical analysis of the data of the Examples above was performed using the Bonferroni Multiple Comparison Test. p<0.05 was regarded as statistically significant.

NASH model mice [2] = experiment: NASH model mice (STZ + high-fat diet), intraperitoneal trametinib study: liver histology, NAFLD activity score, fibrosis area, liver weight; type: in vivo, mouse (C57BL/6); design: key to NAFLD activity score (NAS): NAS: sum of steatosis, inflammation, ballooning scores (Kleiner criteria); key to steatosis score / ballooning score: severity score per Kleiner's criteria on H&E sections; fibrosis area score (sirius red-positive area): unit not given here; conditions: for fibrosis area score (sirius red-positive area) / NAFLD activity score (NAS): telmisartan 10 mg/kg p.o., once daily 6 to 9 weeks of age; for fibrosis area score (sirius red-positive area): vehicle 0.89±0.19; for NAFLD activity score (NAS): vehicle 4.38±0.52
Description: as §1, §2
On the day before the start of administration based on the body weight of mice, the NASH mice at 6 weeks of age (day 42±2) prepared in Example 1 were randomly divided into 3 groups of 8 mice.
The present inventors selected trametinib as a substance expected to have a therapeutic effect on non-alcoholic steatohepatitis through a screening method using artificial intelligence (AI) deep learning technology. In order to identify whether the substance has an effect on non-alcoholic steatohepatitis, the 3 groups of mice were each intraperitoneally or orally administered with the following compounds at an amount of about […]. As the negative control group of trametinib in the present invention, the vehicle administration group was treated with a solvent of the same amount used for compound dissolution. Telmisartan (Boehringer Ingelheim GmbH, Germany) was used in the positive control group. The telmisartan is a compound which has anti-NASH, anti-fibrosis, and anti-inflammatory effects in NASH and in a liver disease animal model related to NASH.
Group 1 (vehicle administration group: negative control group): 8 NASH mice were intraperitoneally administered with a vehicle (4% DMSO in saline) in a volume of 5 mL/kg once daily from 6 weeks to 9 weeks of age.
Group 2 (telmisartan administration group: positive control group): 8 NASH mice were orally administered with purified water supplemented with telmisartan at a dose of 10 mg/kg once daily from 6 weeks to 9 weeks of age.
Group 3 (trametinib administration group: experimental group): 8 NASH mice were intraperitoneally administered with a vehicle supplemented with trametinib at a dose of 2 mg/kg once daily from 6 weeks to 9 weeks of age.
as §3
For histological analysis of liver tissue, mice in Groups 1 to 3 were sacrificed at 9 weeks of age, and the liver was excised therefrom.
For H&E staining, after sectioning liver tissue, a liver tissue slide fixed with paraffin was immersed in a xylene solution for 3 minutes to remove the paraffin. Thereafter, in order to remove the xylene, the liver tissue slide was immersed in 100% ethanol for 3 minutes and then hydrated with distilled water. Subsequently, the liver tissue slide was immersed in a hematoxylin solution for 5 to 10 minutes and then hydrated with distilled water for 5 minutes, followed by quickly immersing it twice in a 1% HCl solution, and then hydrating with distilled water. Then, the liver tissue slide was immersed in a 1% ammonia solution for 2 minutes to stain the tissue blue. Thereafter, the liver tissue stained blue was immersed in an eosin solution for 2 minutes, followed by immersing the resultant in ethanol for about 3 to 5 minutes. Lastly, the liver tissue was immersed in a xylene solution, whereupon the thus-stained liver fragment was observed under a microscope.
The NAFLD activity score (NAS) is a combined value obtained by considering each condition of steatosis, inflammation, and ballooning, which are observed in a liver section stained with H&E. The NAFLD score was calculated according to Kleiner's criteria (Kleiner DE et al., 2005).
Steatosis, inflammation, and ballooning scores were determined according to severity of symptoms based on observation in H&E-stained liver sections.
For sirius red staining, a sirius red reagent was maintained in an equilibrium state and stirred gently. […]

[3] = trametinib 0.2 mg/kg p.o. once daily, 6 to 9 weeks of age
[4] = trametinib 2 mg/kg i.p. once daily, 6 to 9 weeks of age

In the case of `CCCc1nc2c(C)cc(-c3nc4ccccc4n3C)cc2n1Cc1ccc(-c2ccccc2C(=O)O)cc1` [telmisartan], the “fibrosis area score (sirius red-positive area)” value (shortened to “fibrosis area score”) (NASH model mice [1]; trametinib 0.2 mg/kg p.o.) is reported as 0.44±0.06 and 0.4, the “NAFLD activity score (NAS)” value (NASH model mice [1]; trametinib 0.2 mg/kg p.o.) is reported as 2.25±0.46 and the “number of subjects with a steatosis score of 1” value (NASH model mice [2]; telmisartan 10 mg/kg p.o. once daily, 6 to 9 weeks of age, 8 mice, vehicle 6 subjects) is reported as 1. For the same compound, the “fibrosis area score” value (NASH model mice [2]; trametinib 2 mg/kg i.p.) was 0.40±0.15 and 0.4 and the “NAFLD activity score (NAS)” value (NASH model mice [2]; trametinib 2 mg/kg i.p.) was 2.75±0.46.
In the case of `CC(=O)Nc1cccc(-n2c(=O)n(C3CC3)c(=O)c3c(Nc4ccc(I)cc4F)n(C)c(=O)c(C)c32)c1` [trametinib, N—(3—{3—cyclopropyl—5-[(2-fluoro-4-iodophenyl)amino]-6,8-dimethyl-2,4,7-trioxo-3 ,4,6,7-tetrahydropyrido [4,3-d]pyrimidin-1(2H)-yl}phenyl)acetamide], the “pathological conditions (sirius red staining) compared to vehicle administration group” value (NASH model mice [1]; [3]) is reported as “improved”, the “pathological conditions of liver tissue (H&E staining) compared to vehicle administration group” value (NASH model mice [1]; [3]) is reported as “improved” and the steatosis score (NASH model mice [1]; trametinib 0.2 mg/kg p.o. once daily, 6 to 9 weeks of age, mean ± standard deviation, vehicle 0.86±0.38) is reported as 0.38±0.52 and 0.4. The inflammation score (NASH model mice [1]; trametinib 0.2 mg/kg p.o. once daily, 6 to 9 weeks of age, vehicle 2.71±0.49) was 1.75±0.71 and 1.8, the liver-to-body weight ratio (NASH model mice [1]; trametinib 0.2 mg/kg p.o. once daily, 6 to 9 weeks of age, vehicle 8.7±0.8%) was 7.4±0.8% and the average liver weight (NASH model mice [1]; trametinib 0.2 mg/kg p.o. once daily, 6 to 9 weeks of age, vehicle 1776±189 mg) was 1466 ± 169 mg. The “number of subjects with a steatosis score of 1” value (NASH model mice [1]; trametinib 0.2 mg/kg p.o. once daily, 8 mice, vehicle 6 subjects) was 3, the “fibrosis area score” value (NASH model mice [1]; trametinib 0.2 mg/kg p.o.) was 0.34±0.15 and 0.3 and the “NAFLD activity score (NAS)” value (NASH model mice [1]; trametinib 0.2 mg/kg p.o.) was 2.88±1.13. For the same compound, the “percentage of fibrosis area compared to vehicle administration group” value (NASH model mice [1]; trametinib 0.2 mg/kg p.o., sirius red staining) was “reduced”, the steatosis score (NASH model mice [2]; trametinib 2 mg/kg i.p. once daily from 6 to 9 weeks of age, H&E liver sections, vehicle average 0.8) was 0 and the “fibrosis (sirius red staining) compared to vehicle administration group” value (NASH model mice [2]; [4]) was “alleviated”. For the same compound, the “pathological conditions of liver tissue (H&E staining) compared to vehicle administration group” value (NASH model mice [2]; [4]) was “improved”, the “reduction of average liver weight compared to vehicle administration group” value (NASH model mice [2]; [4]) was 40% and the “subjects with a ballooning score of 0, share of total number of subjects” value (NASH model mice [2]; [4]) was 100%. The “number of subjects with a ballooning score of 0” value (NASH model mice [2]; trametinib 2 mg/kg i.p. once daily, 6 to 9 weeks of age, 8 mice) was “eight”, the ballooning score (NASH model mice [2]; trametinib 2 mg/kg i.p. once daily, 6 to 9 weeks of age, all subjects) was 0 and the liver-to-body weight ratio (NASH model mice [2]; trametinib 2 mg/kg i.p. once daily, 6 to 9 weeks of age, vehicle 7.0±0.8%) was 5.3±0.96%. The average liver weight (NASH model mice [2]; trametinib 2 mg/kg i.p. once daily, 6 to 9 weeks of age, vehicle 1444±106 mg) was 873 ± 218 mg, the “fibrosis area score” value (NASH model mice [2]; trametinib 2 mg/kg i.p.) was 0.50±0.13 and 0.5 and the “NAFLD activity score (NAS)” value (NASH model mice [2]; trametinib 2 mg/kg i.p.) was 2.63±0.52. For the same compound, the “percentage of fibrosis area compared to vehicle administration group” value (NASH model mice [2]; trametinib 2 mg/kg i.p., sirius red staining, p<0.0001) was “remarkable decrease”.

Reference: US20220354849A1, “COMPOSITION FOR PREVENTING OR TREATING METABOLIC LIVER DISEASE” (STANDIGM INC., priority 2019, published 2022)
